Results on five compounds are retold here after patent publication US20250177383A1, “DI-CYCLOPROPYL BASED IL-17A MODULATORS AND USES THEREOF” (DICE ALPHA, INC., priority 2022, published 2025).

Some results are limits rather than exact numbers.

For one data set, the target named is T1, IL-17A/A (Homo sapiens, UniProt Q16552).
T1 sequence (Q16552 24-155): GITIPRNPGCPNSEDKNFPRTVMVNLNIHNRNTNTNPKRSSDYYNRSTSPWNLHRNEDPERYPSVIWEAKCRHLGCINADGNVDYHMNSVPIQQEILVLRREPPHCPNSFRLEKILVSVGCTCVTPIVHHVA
In words: IL-17A/A HEK-Blue Cell Assay. It is filed as cell-based. The settings on record: HEK-Blue IL-17 reporter cells, IL-17A/A stimulation, 20 hours, SEAP readout; read-out: IL17 AA HEK-5 pIC50 (converted). In short, it runs like this: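 Cells co-expressing IL-17RA, IL-17RC and Act1 received titrated compound, top final 10 uM in 0.1% DMSO, immediately before IL-17A/A stimulation.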

In another data set the target is T2, IL-17A/F (Homo sapiens, UniProt Q16552+Q96PD4).
T2 sequence (Q16552 24-155): T1 sequence (Q16552 24-155)
T2 sequence (Q96PD4 31-163): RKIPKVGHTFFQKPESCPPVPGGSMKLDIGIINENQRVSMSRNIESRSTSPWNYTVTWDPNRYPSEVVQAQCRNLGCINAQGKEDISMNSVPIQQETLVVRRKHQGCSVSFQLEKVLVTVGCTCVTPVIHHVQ
Description: IL-17A/F HEK-Blue Cell Assay. In kind it is cell-based. The settings on record: HEK-Blue IL-17 reporter cells, IL-17A/F stimulation, 20 hours, SEAP readout; read-out: IL17AF HEK Blue pIC50 (converted).

Data set [1] is described as follows: Microsomal stability, human liver microsomes. In kind it is in vitro ADME. The settings on record: human liver microsomes 0.5 mg protein/mL, 1 μM test compound, NADPH, 37° C., 60 min; read-out: HLM Clint. As for the experimental part: (§1) Test compound and control working solution preparation. 5 μL of a compound and control stock solution (10 mM in dimethyl sulfoxide (DMSO)) were diluted with 495 μL of acetonitrile (ACN).
(§2) NADPH cofactor preparation. The appropriate amount of NADPH powder was weighed and diluted into a 10 mM MgCl2 solution (working solution concentration: 10 mM; final concentration in reaction system: 1 mM). Materials: NADPH powder: β-Nicotinamide adenine dinucleotide phosphate reduced form, tetrasodium salt; NADPHA4Na (Vendor: Chem-Impex International, Cat. No. 00616).
(§3) Liver Microsome Preparation. The appropriate concentrations of microsome working solutions were prepared in 100 mM potassium phosphate buffer. Materials: Human Liver Microsomes (HLM) Cat No. 452117 and Lot No. 38295 (Corning); SD Rat Liver Microsomes (RLM) Cat No. R1000 and Lot No. 1910100 (Xenotech).
(§4) Stop solution preparation. Cold (4° C.) acetonitrile (ACN) containing 200 ng/mL tolbutamide and 200 ng/mL labetalol as internal standards (IS) were used as the stop solution.
(§5) Assay Procedure. Empty incubation plates (T60 and NCF60) were warmed for 10 mins prior to use. Liver microsomes were diluted to 0.56 mg/mL in 100 mM phosphate buffer. 445 uL microsome working solutions (0.56 mg/mL) were transferred into pre-warmed ‘Incubation’ plates T60 and NCF60, Then ‘Incubation’ plates T60 and NCF60 were pre-incubated for 10 min at 37° C. with constant shaking. 54 μL liver microsomes were transferred to the blank plate, then 6 μL NAPDH cofactor were added to the blank plate, followed by the addition 180 μL quenching solution to the blank plate. 5 μL compound working solution (100 μM) were added into ‘incubation’ plates (T60 and NCF60) containing microsomes and mixed thoroughly 3 times. To the NCF60 plate 50 μL of buffer were added and mixed 3 times thoroughly. Start timing; plate was incubated at 37° C. for 60 min while shaking. In ‘Quenching’ plate TO, were added 180 μL quenching solution and 6 μL NAPDH cofactor. Plate is chilled to prevent evaporation. The T60 plate, was mixed 3 times thoroughly, and immediately 54 μL of the mixture was removed for the 0-min time point to ‘Quenching’ plate. Then 44 μL NAPDH cofactor was added to the incubation plate (T60). Start timing; plate was incubated at 37° C. for 60 min while shaking. Final concentrations of each component in the incubation media: Microsome (0.5 mg protein/mL); Test compound (1 μM); control compound ([…]); ACN (0.99%); and DMSO (0.01%). At 5, 15, 30, 45, and 60 min, 180 μL quenching solution was added to ‘Quenching’ plates, mixed once, and serially transferred 60 μL of sample from T60 plate per time point to ‘Quenching’ plates. For the NCF60 plate, mix once and 60 μL of sample was transferred from the NCF60 incubation to ‘Quenching’ plate containing quenching solution at the 60-min time point (Start time 1:00:00 and End Time 0:00:00).
(§6) All sampling plates were shaken for 10 min, then centrifuged at 4000 rpm for 20 minutes at 4° C. 80 μL of supernatant were transferred into 240 μL HPLC water, and mixed by plate shaker for 10 min. Each bioanalysis plate was sealed and shaken for 10 minutes prior to LC-MS/MS analysis.

Data set [2] is described as follows: Microsomal stability, rat liver microsomes. In kind it is in vitro ADME. The following applies: SD rat liver microsomes 0.5 mg protein/mL, 1 μM test compound, NADPH, 37° C., 60 min; read-out: RLM Clint. On the procedure:
as §1, §2, §3, §4, §5, §6

A further data set is described as follows: Rat pharmacokinetics, PO. In kind it is in vivo. The following applies: male rat, PO 5 mg/kg oral gavage, plasma, Linear/log trapezoidal; read-out: Rat PO AUC0-t. On the procedure:
Formulations for PO. An appropriate amount of the test article is weighed and mixed with the appropriate volume of vehicle to get a clear solution or a uniform suspension, vortexing or sonication in water bath may used. Animals are dosed within four hours after the formulation is prepared.
Formulation samples are removed from each of the formulation solutions or suspensions, transferred into 1.5 mL of polypropylene microcentrifuge tubes and run dose validated by LC/UV or LC-MS/MS.
Dose administration. For PO dosing, the dose formulation is administered via oral gavage.
Blood Collection. Each blood collection (about 0.2 mL per time point) is performed from carotid artery cannula (CAC) of each animal into a pre-chilled commercial EDTA-K2 tubes as anti-coagulant, then placed on wet ice until centrifugation. Blood samples are processed for plasma by centrifugation at approximately 4° C., 3,200 g for 10 min. Plasma is collected respectively and a certain amount of plasma from rat is transferred into pre-labeled 96 well plate or polypropylene tubes, quick frozen over dry ice and kept at −60° C. or lower until LC-MS/MS analysis. After terminal collection, all plasmas are stored at approximately −80° C. freezer until final analysis.
Plasma concentration versus time data are plotted in graph and analyzed by non-compartmental approaches using the Phoenix WinNonlin 6.3 software program. Trapezoids: Before TMax (Linear); After Tmax (Log). Partial Area Interpolations: Before TMax (Linear); After Tmax (Log).

In the case of `CCC(=O)N[C@@H](C(=O)N1CCN(C)[C@H](C)C1)[C@@H](C)c1ccc(NC(=O)[C@@H](NC(=O)c2ccnn2CC)C(C2CC2)C2CC2)c(F)c1` [Compound 209], the IC50 is under 10 nM on IL-17A/A and 10 to 100 nM on IL-17A/F. The microsomal CLint at 1 μM in data set [1] is 50 to 150 µL/min/mg; in data set [2] it was under 9.6 µL/min/mg. In “Rat pharmacokinetics, PO”, the AUC(0-t) is 500 to 1000 ng·h/mL.
On the same counts, the results for `CCC(=O)N[C@@H](C(=O)N1C[C@@H](C)N(C)C[C@H]1C)[C@@H](C)c1ccc(NC(=O)[C@@H](NC(=O)c2ccnn2CC)C(C2CC2)C2CC2)c(F)c1` [Compound 212] are under 10 nM, 10 to 100 nM, under 50 µL/min/mg, 9.6 to 20 µL/min/mg and 500 to 1000 ng·h/mL.
The corresponding values for `CCC(=O)N[C@@H](C(=O)N1CCN(C)[C@@H](C)C1)[C@@H](C)c1ccc(NC(=O)[C@@H](NC(=O)c2ccnn2CC)C(C2CC2)C2CC2)c(F)c1` [Compound 213] are under 10 nM, 10 to 100 nM, 50 to 150 µL/min/mg, under 9.6 µL/min/mg and 500 to 1000 ng·h/mL.
On the same counts, the results for `CCn1nccc1C(=O)N[C@H](C(=O)Nc1ccc([C@H](C)[C@@H](NC(=O)COC)C(=O)N2CCN(C)CC2)cc1F)C(C1CC1)C1CC1` [Compound 215] are 10 to 100 nM, 10 to 100 nM, 50 to 150 µL/min/mg, under 9.6 µL/min/mg and over 1000 ng·h/mL.
Consider `CCC(=O)N[C@@H](C(=O)N1CCN(C)[C@H](C)C1)[C@@H](C)c1ccc(NC(=O)[C@@H](NC(=O)C2(F)CC2)C(C2CC2)C2CC2)c(F)c1` [Compound 245], for which the figures for the IC50 at IL-17A/A and on IL-17A/F were 10 to 100 nM and 100 to 10000 nM, respectively. The microsomal CLint at 1 μM in data set [1] was under 50 µL/min/mg; in data set [2], under 9.6 µL/min/mg. Also, the AUC(0-t) in the data set “Rat pharmacokinetics, PO” was over 1000 ng·h/mL.
